Source: patent US6716858B1, “Methods for inhibiting diabetic complications” (Kansas University Medical Center, priority 1995, dated 2004)

What was measured:
[1] = system: post-Amadori AGE formation, RNase Amadori intermediate; experiment: Interrupted (post-Amadori) ribose glycation assay, RNase; type: biochemical, bovine; settings: RNase, 24 h in 0.5 M ribose, then free ribose removed, 37° C.
Protocol: (§1) ELISA detection of AGE products. The general method of Engvall (1981, Methods Enzymol. 70:419-439) was used to perform the ELISA. Typically, glycated protein samples were diluted to approximately 1.5 ug/ml in 0.1 M sodium carbonate buffer of pH 9.5 to 9.7. The protein was coated overnight at room temperature onto 96-well polystyrene plates by pippetting 200 ul of the protein solution in each well (0.3 ug/well). After coating, the protein was washed from the wells with a saline solution containing 0.05% Tween-20. The wells were then blocked with 200 ul of 1% casein in carbonate buffer for 2 h at 37° C. followed by washing. Rabbit anti-AGE antibodies were diluted at a titer of about 1:350 in incubation buffer, and incubated for 1 h at 37° C., followed by washing. In order to minimize background readings, antibodies R479 used to detect glycated RNase were raised against glycated BSA, and antibodies R618 used to detect glycated BSA and glycated Hb were raised against glycated RNase. An alkaline phosphatase-conjugated antibody to rabbit IgG was then added as the secondary antibody at a titer of 1:2000 or 1:2500 (depending on lot) and incubated for 1 h at 37° C., followed by washing. The p-nitrophenylphosphate substrate solution was then added (200 ul/well) to the plates, with the absorbance of the released p-nitrophenolate being monitored at 410 nm with a Dynatech MR 4000 microplate reader.
Glycation Modifications Modification with ribose or glucose was generally done at 37° C. in 0.4 M phosphate buffer of pH 7.5 containing 0.02% sodium azide. The high buffer concentration was always used with 0.5 M ribose modifications. The solutions were kept in capped tubes and opened only to remove timed aliquots that were immediately frozen for later carrying out the various analyses. “Interrupted glycation” experiments were carried out by first incubating protein with the ribose at 37° C. for 8 or 24 h, followed by immediate and extensive dialysis against frequent cold buffer changes at 4° C. The samples were then reincubated by quickly warming to 37° C. in the absence of external ribose. Aliquots were taken and frozen at various intervals for later analysis. Due to the low molecular weight of RNase, protein concentrations were remeasured after dialysis even when low molecular weight cut-off dialysis tubing was used. An alternative procedure was also devised (see below) in which interruption was achieved by simple 100-fold dilution from reaction mixtures containing 0.5 M ribose. Protein concentrations were estimated from UV spectra. The difference in molar extinction between the peak (278 nm) and trough (250 nm) was used for RNase concentration determinations in order to compensate for the general increase in UV absorbance that accompanies glycation. Time-dependent UV-difference spectral studies were carried out to characterize the glycation contributions of the UV spectrum. […]
Glycation was first carried out by incubating protein (10 mg/ml) with 0.5 M ribose at 37° C. in 0.4 M phosphate buffer at pH 7.5 containing 0.2% sodium azide for 24 h in the absence of inhibitors. Glycation was then interrupted to remove excess and reversibly bound (Schiff base) sugar by extensive dialysis against frequent cold buffer changes at 4° C.

rats = experiment: Ribose administration to rats (Phase I and II), renal physiology; type: in vivo, rat
Protocol: Two groups of six rats each were given in one day either:
a. 300 mM ribose (two intraperitoneal infusions 6-8 hours apart, each 5% of body weight as ml); or
b. 50 mM ribose (one infusion)
Rats were then kept for 4 days with no further ribose administration, at which time they were sacrificed and the following physiological measurements were determined: (i) initial and final body weight; (ii) final stage kidney weight; (iii) initial and final tail-cuff blood pressure; (iv) creatinine clearance per 100 g body weight.
Groups of rats (3-6) were intraperitoneally given 0.3 M “low ribose dose” (LR) or 1.0 M “high ribose dose” (HR) by twice-daily injections for either (i) 1 day, (ii) a “short-term” (S) of 4 days, or (iii) a “long-term” (L) of 8 days. Additionally, these concentrations of ribose were included in drinking water.

ribose-treated rats = experiment: Ribose rat model, intervention by compounds (Phase III); type: in vivo; settings: 1 M ribose alone, 8 days
Protocol: Sixty rats were randomized into 9 different groups, including those exposed to 1 M ribose for 8 days in the presence and absence of aminoguanidine, pyridoxamine, and thiamine pyrophosphate as follows:
(ii) high dose (250 mg/kg body weight) of pyridoxamine (“compound-P”);
(iii) high dose (250 mg/kg body weight of thiamine pyrophosphate (“compound-T” or “TPP”); and
(iv) low dose (25 mg/kg body weight) of aminoguanidine (“AG”).
(i) only 1 M ribose-saline (2×9 cc daily IP for 8 days);
(ii) ribose plus low dose (“LP”) of pyridoxamine (25 mg/kg body weight injected as 0.5 ml with 9 cc ribose);
(iii) ribose plus high dose (“HP”) of pyridoxamine (250 mg/kg body weight injected as 0.5 ml with 9 cc ribose);
(iv) ribose plus high dose (“HT”) of thiamine pyrophosphate (250 mg/kg body weight injected as 0.5 ml with 9 cc ribose); and
(v) ribose plus low dose of amino guanidine (25 mg/kg body weight injected as 0.5 ml with 9 cc ribose).
Unlike Phase II, no ribose was administered in drinking water. Intervention compounds were pre-administered for one day prior to introducing them with ribose.

[2] = system: AGE formation in bovine serum albumin (BSA); experiment: Uninterrupted glycation of BSA with glucose, anti-AGE ELISA; type: biochemical; settings: BSA 10 mg/ml, 1.0 M glucose, pH 7.5, 37° C., 6 weeks; inhibitors 3, 15 and 50 mM
Protocol: (§2) Uninterrupted Glycation with Glucose Bovine serum albumin, ribonuclease A, and human hemoglobin were incubated with glucose at 37° C. in 0.4 M sodium phosphate buffer of pH 7.5 containing 0.02% sodium azide. The protein, glucose (at 1.0 M), and prospective inhibitors (at 0.5, 3, 15 and 50 mM) were introduced into the incubation mixture simultaneously. Solutions were kept in the dark in capped tubes. Aliquots were taken and immediately frozen until analyzed by ELISA at the conclusion of the reaction. The incubations were for 3 weeks (Hb) or 6 weeks (RNase, BSA).
as §1
FIGS. 1 A-D are graphs which show the effect of vitamin B6 derivatives on post-Amadori AGE formation in bovine serum albumin glycated with glucose. BSA (10 mg/ml) was incubated with 1.0 M glucose in the presence and absence of the various indicated derivative in 0.4 M sodium phosphate buffer of pH 7.5 at 37° C. for 6 weeks. Aliquots were assayed by ELISA using R618 anti-AGE antibodies. Concentrations of the inhibitors were 3, 15 and 50 mM. Inhibitors used in FIGS. (1A) Pyridoxamine (PM); (1B) pyridoxal phosphate (PLP); (1C) pyridoxal (PL); (1D) pyridoxine (PN).
FIGS. 2A-D are graphs which show the effect of vitamin B1 derivatives and aminoguanidine (AG) on AGE formation in bovine serum albumin. BSA (10 mg/ml) was incubated with 1.0 M glucose in the presence and absence of the various indicated derivative in 0.4 M sodium phosphate buffer of pH 7.5 at 37° C. for 6 weeks. Aliquots were assayed by ELISA using R618 anti-AGE antibodies. Concentrations of the inhibitors were 3, 15 and 50 mM. Inhibitors used in FIGS. (2A) Thiamine pyrophosphate (TPP); (2B) thiamine monophosphate (TP); (2C) thiamine (T); (2D) aminoguanidine (AG).

[3] = system: AGE formation during uninterrupted glycation of ribonuclease A (RNase A) by ribose; experiment: Uninterrupted ribose glycation assay, RNase; type: biochemical, bovine; settings: continuous 0.05 M ribose, 6 weeks, inhibitors 0.5-50 mM
Protocol: as §1
as §2, with “ribose glycation assays” for “Glycation with Glucose”, “ribose” for “glucose”, “protein (10 mg/ml or 1 mg/ml), 0.05 M ribose,” for “protein, glucose (at 1.0 M),”, “BSA). Glycation reactions were monitored for constant pH throughout the duration of the experiments.” for “BSA).”
The inhibitory effects of vitamin B1 and B6 derivatives on the kinetics of antigenic AGE formation were evaluated by polyclonal antibodies specific for AGEs. Initial inhibition studies were carried out on the glycation of bovine ribonuclease A (RNase) in the continuous presence of 0.05 M ribose, which is the concentration of ribose where the rate of AGE formation is near maximal.

[4] = system: AGE formation during uninterrupted glycation of bovine serum albumin (BSA) by ribose; experiment: Uninterrupted ribose glycation assay, BSA; type: biochemical; settings: 0.05 M ribose, 6 weeks, inhibitors 0.5-50 mM
Protocol: as §1
as §2, with “ribose glycation assays” for “Glycation with Glucose”, “ribose” for “glucose”, “protein (10 mg/ml or 1 mg/ml), 0.05 M ribose,” for “protein, glucose (at 1.0 M),”, “BSA). Glycation reactions were monitored for constant pH throughout the duration of the experiments.” for “BSA).”

[5] = system: post-Amadori AGE formation, BSA Amadori intermediate; experiment: Interrupted (post-Amadori) ribose glycation assay, BSA; type: biochemical, bovine; settings: 24 h in 0.5 M ribose, then free ribose removed, 37° C.
Protocol: as §1
Glycation was first carried out by incubating protein (10 mg/ml) with 0.5 M ribose at 37° C. in 0.4 M phosphate buffer at pH 7.5 containing 0.2% sodium azide for 24 h in the absence of inhibitors. Glycation was then interrupted to remove excess and reversibly bound (Schiff base) sugar by extensive dialysis against frequent cold buffer changes at 4° C. The glycated intermediate samples containing maximal amount of Amadori product and little AGE (depending on protein) were then quickly warmed to 37° C. without re-addition of ribose. This initiated conversion of Amadori intermediates to AGE products in the absence or presence of various concentrations (typically 3, 15 and 50 mM) of prospective inhibitors. Aliquots were taken and frozen at various intervals for later analysis. The solutions were kept in capped tubes and opened only to remove timed aliquots that were immediately frozen for later carrying out the various analyses.

[6] = Phase II: 0.3 M or 1.0 M ribose for 1, 4 or 8 days

O=C[C@H](O)[C@H](O)[C@H](O)CO [ribose]
inhibition of post-Amadori AGE formation [1]: diminished by increasing ribose concentrations
Albumin effusion rate (AER) (rats; [6]): increased significantly in a ribose-dependent manner at 1-day and 4-day exposures
creatinine clearance (rats; [6]): decreased in all groups in a ribose dose-dependent and time-dependent manner
tail-cuff blood pressure (rats; Phase II: 0.3 M or 1.0 M ribose twice daily IP for 1, 4 or 8 days, also in drinking water): increased in all groups of ribose-treated rats
tail-cuff blood pressure (rats; high ribose (2×300 mM) in one day, measured 4 days later, from 66±4): 106±5
creatinine clearance (rats; high ribose (2×300 mM), normal range expected about 1.0-1.2): 0.62±0.13 cc per 100 g body weight
tail-cuff blood pressure (rats; low ribose (1×50 mM) in one day, measured 4 days later, from 66±4): 83±3
creatinine clearance (rats; low ribose (1×50 mM), normal range expected about 1.0-1.2): 0.87±0.15 cc per 100 g body weight
Albumin effusion rate (AER) (ribose-treated rats): elevated

Cc1ncc(CO)c(C=O)c1O [pyridoxal]
inhibition of antigenic AGE formation (ELISA) [2]: effective above 15 mM
inhibition of overall kinetics of AGE formation from ribose [3]: significantly inhibited the rate of AGE formation on RNase at concentrations of 50 mM and 15 mM
inhibition of overall kinetics of AGE formation from ribose [4]: mostly inhibited the rate of AGE formation, but not the final levels of AGE formed
inhibition of post-Amadori AGE formation [1]: did not show any significant inhibition at 15 mM

Cc1ncc(C[n+]2csc(CCO)c2C)c(N)n1 [thiamine]
inhibition of antigenic AGE formation (ELISA) [2]: not inhibitory
inhibition of overall kinetics of AGE formation from ribose [3]: little effect on the rate of AGE formation, but a substantial decrease in the final level of AGE formed in the presence of the highest concentration of inhibitor
inhibition of overall kinetics of AGE formation from ribose [4]: inhibited the final levels of AGEs formed, without greatly affecting the rate of AGE formation
inhibition of post-Amadori AGE formation [1]: showed no effect
inhibition of post-Amadori AGE formation [5]: showed no effect

Cc1ncc(COP(=O)(O)O)c(C=O)c1O [pyridoxal phosphate, pyridoxal-5′-phosphate]
inhibition of antigenic AGE formation (ELISA) [2]: strongly suppressed antigenic AGE formation at even the lowest concentrations tested
inhibition of overall kinetics of AGE formation from ribose [3]: significantly inhibited the rate of AGE formation on RNase at concentrations of 50 mM and 15 mM
inhibition of overall kinetics of AGE formation from ribose [4]: mostly inhibited the rate of AGE formation, but not the final levels of AGE formed
inhibition of post-Amadori AGE formation [1]: showed significant inhibition at 15 mM

Cc1ncc(C[n+]2csc(CCOP(=O)(O)O)c2C)c(N)n1 [thiamine monophosphate]
inhibition of antigenic AGE formation (ELISA) [2]: not inhibitory
inhibition of overall kinetics of AGE formation from ribose [3]: little effect on the rate of AGE formation, but a substantial decrease in the final level of AGE formed in the presence of the highest concentration of inhibitor
inhibition of post-Amadori AGE formation [1]: showed some intermediate effect
inhibition of post-Amadori AGE formation [5]: showed some intermediate effect

Cc1ncc(CO)c(CO)c1O [pyridoxine]
inhibition of antigenic AGE formation (ELISA) [2]: slightly effective at the highest concentrations tested
inhibition of overall kinetics of AGE formation from ribose [3]: moderately inhibited AGE formation on RNase
inhibition of overall kinetics of AGE formation from ribose [4]: failed to inhibit AGE formation on BSA
inhibition of post-Amadori AGE formation [5]: did not produce any inhibition
